In patent publication US20170354669A1, “DISRUPTION OF THE INTERACTION BETWEEN AMYLOID BETA PEPTIDE AND DIETARY LIPIDS” (The Trustees of Columbia University in the City of New York, priority 2016, published 2017):
pKd: −log10 of the molar value. “And” between values parts separate entries of the source, which are not always exact repeats. Equal values may be shown once. “Also recorded” adds a separate entry of the source.

Legend:
Aβ42 = molecular target: T1, Aβ42 (Homo sapiens, UniProt P05067); experiment: Lipid binding assay: Aβ42-FAM binding to plate-bound amine-containing lipids
T1 construct: SensoLyte Fluorescent β-Amyloid1-42 Sampler Kit, Anaspec; purchased Anaspec
Description: Maleic Anhydride Activated plates (Pierce Amine-binding, 96-well plates, Thermo Scientific) were washed in wash buffer (PBS: Phosphate buffered saline, 0.15 M sodium chloride, pH 7.2 containing 0.05% Tween-20 Detergent, PBST, Thermo Scientific) 4 times to activate reactive maleic anhydride functional group. Amine containing lipids were PE containing docosahexaenoyl (22:6) and stearoyl (18:0) acyl chains (22:6/18:0 PE) or two stearoyl acyl chains (di18:0 PE) were from Avanti Polar Lipids. 22:6/18:0 PE was obtained in chloroform, dried down and solubilized at 200 pmol/μL in 1% n-octylglucoside (NOG, Santa Cruz) in PBS and sonicated for […]. di18:0 PE was obtained as a powder, solubilized at 200 pmol/μl in 1% NOG and bath sonicated for 5 minutes. Lipids were incubated at a volume of 100 μL in activated maleic anhydride plates at increasing concentration at 4° C. in PBS/1% NOG. After incubation, lipids were removed and SuperBlock Blocking Buffer/PBS (Thermo) was added at a volume of […] for 1 hour at room temperature. Plates were then washed 4 times with PBST (Thermo Scientific). Fluorescently labeled amyloid β-peptide (SensoLyte Fluorescent β-Amyloid1-42 Sampler Kit, Anaspec) was prepared with […], Component B, Solvent for β-amyloid (Anaspec) as per the commercial protocol and then diluted in deionized water to a concentration of 100 μM. […] Plates were then washed 4 times in PBST and fluorescence was detected using Tecan Infinite 200 at wavelengths 494/521 (excitation, emission) using the Optimal Gain setting.
Assays were done in triplicate wells and reported as mean+/−standard error. Binding kinetics and best fit curve fitting were accomplished using Prism Graphpad software.
Lipid containing long chain polyunsaturated fatty acid 22:6, docosahexaenoic acid (DHA) and an amine containing headgroup, phosphatidylethanoloamine (PE) was bound to maleic anhydride activated plates which bind to free primary amine functional groups at neutral and alkaline pH. […] Specific binding was calculated by subtracting background binding of di18:0 PE.

APPsw+ mice [1] = experiment: Novel object recognition (NOR) training and testing, activity and exploration; type: in vivo
Description: FIGS. 6A-6B. 30 days treatment with escalating dose SDPC. (A) Mice were placed in a box with two identical objects for 10 minutes on the training day 1. […] One object was replaced with a novel object for testing (NOD index). The same data is shown to scale in FIG. 6B (Testing (immediate)). Twenty-four hours later (Testing (24 hours)), mice were placed in the same context with one of the original identical objects (Familiar) and a second novel object (Novel). The time spent with each object was recorded. (B) For testing, novel object discrimination (NOD index) is assessed using the equation [(time novel)/(time familiar+time novel)]. NOD index of 0.5 represents equal time with each object. NOD>0.5 represents more time spent with novel object. Standard error is shown for means of Saline treated APPsw+(control) (n=4); SDPC treated APPsw+ (n=5) and wild type receiving no treatment (n=4). Significance was determined for […] using Student's t-test. SDPC was obtained from Avanti Polar Lipids (850472C) in chloroform, dried under vacuum conditions and resuspended in 0.9% saline (0.9% sodium chloride injection, USP, NDC 0409-7983-61, Hospira) containing 0.2% (weight:volume) methyl cellulose (average Mn 40,000, viscosity: 400 cP, CAS 9004-67-5, Sigma-Aldrich 274429) to aid in solubilization. A control solution of 0.9% saline containing 0.2% methyl cellulose was prepared at the same time without SDPC. A concentration of 3 mg/ml was used for doses 1-15 and 12 mg/ml was used for doses 16-18 (FIG. 3). Brief (3-5 minutes) bath sonication was used to improve solubility of 12 mg/ml concentration. Mice were treated for 10 days at a low dose of SDPC intranasally administered 2.5 uL each nostril (5 μL total dose) for 0.5 mg/kg every other day assuming average mouse weight of 30 g (0.03 kg) (FIG. 3). After 10 days, dose was escalated to 2 mg/kg every other day for an additional 19 days (total treatment time […]). Doses 16-18 were administered daily. Non-invasive behavioral testing using novel object recognition (118) and Nesting behavior (114) were used to assess behavioral function. Deficits were expected in APPsw+ (Tg) mice and compared to wild type littermates of the same age (13-14 months). APPsw+ mice were treated (Tx) with either control solution of 0.9% saline containing 0.2% methyl cellulose [Saline] or SDPC in 0.9% saline containing 0.2% methyl cellulose [SDPC]. […] Significant changes were seen using Student's t-test comparing SDPC and wild type (non-treated) [WT Ntx] and comparing saline and WT Ntx, but not when comparing SDPC and saline groups likely due to small sample size (n=4-5).

APPsw+ mice [2] = experiment: Open Field testing; type: in vivo; settings: 10 days intranasal low dose, following NOR testing; FIG. 4D
Description: FIGS. 4A-4D. 10 days treatment with low dose SDPC. (A) After 10 days treatment (Tx) with low dose phosphatidylcholine (PC) containing docosahexaenoyl (22:6) and stearoyl (18:0) acyl chains, 18:0-22:6 PC; 1-stearoyl-2-docosahexaenoyl-sn-glycero-3-phosphocholine (CAS Number 59403-52-0; Synonyms: 1-octadecanoyl-2-(4Z,7Z,10Z,13Z,16Z,19Z-docosahexaenoyI)-sn-glycero-3-phosphocholine and PC(18:0/22:6(4Z,7Z,10Z,13Z,16Z,19Z))) (SDPC) intranasally, nesting score was assessed as described before (114). The number of nestlettes (from 3 initially placed in cage) was estimated and exact weight of remaining nestlettes was determined in grams (g) from initial 3 nestlettes (approximately 2 g). (B) Activity during novel object recognition (NOR) training was assessed after 10 days intranasal SDPC. Grooming behavior, free rearing, wall rearing and center crossing events are shown and were summed in total events. (C) Time spent with each identical object during NOR training. (D) Activity during Open Field testing 24 hours after NOR training (note, no difference in novel object discrimination (NOD) index was found. Standard error is shown for means of Saline treated APPsw+(control) (n=4); SDPC treated APPsw+ (n=5) and wild type receiving no treatment (n=4). Significance was determined for […] using Student's t-test. […]

APPsw+ mice [3] = experiment: Novel object recognition (NOR) training and testing, activity and exploration; type: in vivo; settings: 10 days intranasal low dose
APPsw+ mice [4] = experiment: Nesting behavior after intranasal treatment; type: in vivo; settings: 10 days intranasal low dose 0.5 mg/kg every other day, vs saline treated APPsw+, FIG. 4A
Description: SDPC was obtained from Avanti Polar Lipids (850472C) in chloroform, dried under vacuum conditions and resuspended in 0.9% saline (0.9% sodium chloride injection, USP, NDC 0409-7983-61, Hospira) containing 0.2% (weight:volume) methyl cellulose (average Mn 40,000, viscosity: 400 cP, CAS 9004-67-5, Sigma-Aldrich 274429) to aid in solubilization. A control solution of 0.9% saline containing 0.2% methyl cellulose was prepared at the same time without SDPC. A concentration of 3 mg/ml was used for doses 1-15 and 12 mg/ml was used for doses 16-18 (FIG. 3). Brief (3-5 minutes) bath sonication was used to improve solubility of 12 mg/ml concentration. Mice were treated for 10 days at a low dose of SDPC intranasally administered 2.5 uL each nostril (5 μL total dose) for 0.5 mg/kg every other day assuming average mouse weight of 30 g (0.03 kg) (FIG. 3). After 10 days, dose was escalated to 2 mg/kg every other day for an additional 19 days (total treatment time […]). Doses 16-18 were administered daily. Non-invasive behavioral testing using novel object recognition (118) and Nesting behavior (114) were used to assess behavioral function. Deficits were expected in APPsw+ (Tg) mice and compared to wild type littermates of the same age (13-14 months). […]

[5] = molecular target: T2, Aβ42-FAM bound lipids containing 22:6 (Homo sapiens, UniProt P05067); experiment: Competition of Aβ42-FAM binding to plate-bound 22:6 lipid; settings: competitor peptide 5×, 1 μM; FIG. 1C
T2 construct: SensoLyte Fluorescent β-Amyloid1-42 Sampler Kit, Anaspec; purchased Anaspec
Description: Scrambled Aβ or unlabeled Aβ42 peptides (Anaspec) were diluted to 100 μM as above and then diluted in SuperBlock Blocking buffer to 1 μM, incubated for 1 hour at room temperature. Plates were washed and FAM fluorescence was read as above. Lipid containing long chain polyunsaturated fatty acid 22:6, docosahexaenoic acid (DHA) and an amine containing headgroup, phosphatidylethanoloamine (PE) was bound to maleic anhydride activated plates which bind to free primary amine functional groups at neutral and alkaline pH. All binding and washing steps were done in PBS, PBST and SuperBlock PBS to maintain pH at 7.2. A control acyl chain lipid hypothesized not to bind to Aβ peptide was 18:0, stearic acid containing PE (di18:0). After lipids were bound and unreacted binding sites were blocked using SuperBlock, Aβ42 peptide fluorescently tagged with FAM (Anaspec) was incubated with lipid bound wells. […] The dissociation constant Kd was calculated to be 300 nM. Specific binding was calculated by subtracting background binding of di18:0 PE.

## CC/C=C\C/C=C\C/C=C\C/C=C\C/C=C\C/C=C\CCC(=O)O [DHA, docosahexaenoic acid]
Aβ42; read-out: dissociation constant Kd of Aβ binding to DHA
  pKd: ~6.52 and 6.52

## CC/C=C\C/C=C\C/C=C\C/C=C\C/C=C\C/C=C\CCC(=O)O[C@H](COC(=O)CCCCCCCCCCCCCCCCC)COP(=O)([O-])OCC[N+](C)(C)C [SDPC, 1-stearoyl-2-docosahexaenoyl-sn-glycero-3-phosphocholine]
APPsw+ mice [1]; 30 days escalating dose, training day 2, FIG. 6A
  discrimination of one displaced identical object (hippocampal function): no discrimination was determined
APPsw+ mice [1]; 30 days intranasal escalated dose (to 2 mg/kg), SDPC vs saline treated APPsw+, FIG. 5
  number of wall rears and total activity events: significant improvement
APPsw+ mice [1]; 30 days intranasal escalated dose, FIG. 6
  NOR deficits: time spent with a novel object: significant amelioration
APPsw+ mice [1]; 30 days intranasal escalated dose, FIG. 6B
  novel object discrimination index (NOD index): significant changes were not observed; also recorded: trend for amelioration
APPsw+ mice [2]
  activity in the open field test: continued improvement of activity level; also recorded: restored to the level of wild type non-treated mice
APPsw+ mice [3]
  NOR discrimination (NOD index) 24 hours after training: no discrimination was found; also recorded: no difference
APPsw+ mice [3]; vs saline treated APPsw+, FIG. 4B
  activity during NOR training (wall rearing, free rearing, total activity level): trend toward improvement; also recorded: non-significant trend for improvement
APPsw+ mice [3]; FIG. 4C
  exploration: time spent with identical objects during NOR training: trend toward improved exploratory behavior; also recorded: non-significant trend toward exploration activity
APPsw+ mice [4]
  nesting behavior: trend toward improvement; also recorded: non-significant trend for improvement

## CCCCCCCCCCCCCCCCCC(=O)OC[C@H](COP(=O)(O)OCCN)OC(=O)CCCCCCCCCCCCCCCCC [di18:0 PE, reference compound]
Aβ42; FIGS. 1A and 1B, di18:0 at concentrations 10,000 pmol/well and below
  binding of Aβ42-FAM to plate-bound lipid: very low binding activity
Aβ42; only at the highest concentrations of lipid
  binding of Aβ42-FAM to plate-bound lipid at the highest concentrations: modest binding

## unlabeled Aβ42 peptide: unlabeled Aβ42 peptide (Anaspec) used as competitor
[5]
  competitive disruption of Aβ42-FAM binding to 22:6 lipid: competitively disrupted
